According to patent publication US20150157648A1, “NUTRITIONAL APPROACH TO IMPROVING ATHLETIC PERFORMANCE AND REDUCING INJURY WITH L-ERGOTHIONEINE AND/OR VITAMIN D2” (priority 2012, published 2015):

Legend:
[1] = after mushroom consumption, healthy men; cited from earlier work
alpha-synuclein = alpha-synuclein ELISA of plasma, cortex and midbrain of SNCA transgenic mice; assay type: in vivo, mouse; conditions: three months of diet; untreated controls 2.52±0.28
Text: Matched cohorts of an SNCA transgenic mouse model of PD were used to measure the therapeutic efficacy of the medical food formulation ErgoD2TM, created from a single mushroom species, Pleurotus […]. The outcomes measurements assessed improvement in grip strength and alpha-synuclein levels in the cortex and/or midbrain of the PD animals. […] No detectable motor behavior impairments, autonomic abnormalities, olfactory dysfunction, dopaminergic deficits, Lewy body inclusions or neurodegeneration are associated with α-synuclein expression in these mice (Kuo et al., 2010). As outlined in the results section, the mice were grouped at ten (10) mice/cohort and were fed a purina diet for three months with and without addition of the medical food ErgoD2TM, provided by Entia Biosciences, Inc. Three (3) test diets were created with the assistance of Carrie Schultz, Ph.D., Land O'Lakes Purina Feed, and each diet was color-coded. […] Alpha-synuclein was measured using an ELISA kit (Invitrogen, Hu α-Synuclein ELISA Kit) according to the manufacturer's protocol. The α-synuclein concentration of each 1 mL homogenized midbrain lysate was calculated by interpolating absorbance readings to a standard curve and adjusting for necessary dilution factors and protein equivalencies. The mean α-synuclein concentration of the samples in each treatment group was then calculated. […]

[2] = test system: SNCA transgenic mouse model of PD; test: grip strength task in SNCA transgenic mouse model of PD; assay type: in vivo; conditions: PD model mice, three months of treatment
Text: Matched cohorts of an SNCA transgenic mouse model of PD were used to measure the therapeutic efficacy of the medical food formulation ErgoD2TM, created from a single mushroom species, Pleurotus […]. The outcomes measurements assessed improvement in grip strength and alpha-synuclein levels in the cortex and/or midbrain of the PD animals. […] No detectable motor behavior impairments, autonomic abnormalities, olfactory dysfunction, dopaminergic deficits, Lewy body inclusions or neurodegeneration are associated with α-synuclein expression in these mice (Kuo et al., 2010). As outlined in the results section, the mice were grouped at ten (10) mice/cohort and were fed a purina diet for three months with and without addition of the medical food ErgoD2TM, provided by Entia Biosciences, Inc. Three (3) test diets were created with the assistance of Carrie Schultz, Ph.D., Land O'Lakes Purina Feed, and each diet was color-coded. The control/placebo mouse diet consisted of Purina Modified LabDiet® (RMH 3000). The two treatment diets were RMH 3000 supplemented with (i) synthetic N-Acetyl Cysteine (NAC) @ 0.015% of total weight and (ii) the medical food ErgoD2TM @ 0.5% of total weight. […] The mouse is then pulled back gently until the grip is released and peak force at the point of release is recorded in Kg. […]

glutathione (GSH) = test: kinetic assay of plasma glutathione (GSH) in Pac-Tg (SNCA) transgenic mice; assay type: in vivo; conditions: trend only: p=0.10 (Pleurotus), p=0.09 (NAC)
Procedure: Our Pac-Tg (SNCA) mice transgenic mice express the human gene for human alpha-synuclein and these were assigned one of four treatment paradigms (including no treatment). Plasma samples taken from these mice were evaluated in duplicate using a kinetic assay protocol for the presence of glutathione (GSH), a measure of resilience to oxidative stress. The tested subject groups were treated with one of the following: Blazei Mushroom, Pleurotus mushroom, or n-acetyl cysteine (NAC). The results for these groups were compared to those for both untreated and wild-type controls.
Data. A serial dilution of provided standard solution allowed for the creation of a standard curve following kinetic absorbance readings (FIGS. 6A and B). The change in absorbance (Vmax) over five minutes (six absorbance readings) was calculated for each standard and plotted against each standard's known GSH concentration. […] The change in absorbance for the second standard was calculated using only the first two kinetic readings (t=0, t=1) for the same reason. […] A linear regression of the resulting standard curve allowed for extrapolation of GSH levels in the assayed plasma samples based on their changes in absorbance (Vmax) over six minute-reads.
Following tabulation of the data, results were omitted if they were not reproducible in duplicate using all six kinetic readings and within 30% precision. […]

IL-6 = IL-6 ELISA of whole blood cell lysate from alpha synuclein transgenic mice; assay type: in vivo; conditions: one remaining sample per treatment group
Procedure: We pursued this effect in our mice since the role of IL-6 and other neuroimmune factors need to be elucidated on PD. Alpha synuclein transgenic mice expressing the human gene for alpha-synuclein were treated with the medical food ErgoD2™ (Pleurotus; Table 3) or N-Acetylcysteine (NAC), and whole blood cell lysate samples from these mice were evaluated in triplicate using an ELISA for the presence of IL-6. The results were compared to those from untreated and wild-type controls.
A serial dilution of provided standard solution allowed for the creation of a standard curve following absorbency reading. An exponential regression of this curve was used to extrapolate the concentration of IL-6 in the lysate samples based on their final absorbency values and accounting for dilution factors of the samples.
Lysate samples taken from subjects #222 and #321 were clotted. A small amount of each was used during assay, but their relatively high corresponding dilution factors call into question the findings based on these samples.

Drosophila melanogaster = test: survival of Drosophila under Paraquat-induced oxidative stress; assay type: in vivo; conditions: for effect on Paraquat-induced oxidative stress (in words): single nutrient, pure form
Procedure: The effect of Agaricus Blazei without enrichment, with Vitamin D2 enrichment, pure Vitamin D2 and control (vehicle for the delivery) on the survival rate of Drosophila melanogaster under Paraquat-induced oxidative stress condition was tested. The study focused on the control of Paraquat induced oxidative stress/biologic death. Paraquat is a very potent oxidative stress inducing chemical and causes death in animals and plants by the toxicity of released free radicals. Paraquat (10 mM concentration) (Sigma Aldrich) was used to chemically induce oxidative stress. Paraquat is the trade name for N,N′-dimethyl-4,4′-bipyridinium dichloride, a widely used herbicide. Paraquat, a viologen, is quick-acting and non-selective, killing green plant tissue on contact. It is also toxic to humans when swallowed. This is the most standard chemical used in experimental induction of oxidative stress using the Drosophila model system. It catalyzes the formation of reactive oxygen species (ROS). Paraquat will undergo redox cycling in vivo, gets reduced by an electron donor such NADPH, before being oxidized by an electron receptor such as dioxygen to produce superoxide, a major ROS.
The following materials and methods were utilized. Vials containing 10 mM Paraquat (from Sigma Aldrich) in 5 ml of 1.2% Low melting point Agarose medium were prepared. A strip of half moist filter paper was inserted in the medium (with the wet end in). Yeast paste containing 1% concentration (w/w) of the various test materials (see above) mixed to homogeneity was prepared. Yeast paste without drug was used as control. Uniform aliquot (˜300 mg) of yeast paste with or without the test material) was applied to vials in such a way that yeast paste was on the glass surface and covered the dry end (top) of the filter paper strip. Freshly enclosed wild type isogenized Canton-S males and females were collected and starved on 1% agar medium for 5-6 hours. […] Flies were transferred once in 2 days and the number of flies surviving at each transfer was recorded.

[3] = test system: Alzheimer's disease mutant fruit fly; test: survival and life span of Alzheimer's disease (APP over-expression) Drosophila model; assay type: in vivo; conditions: APP induced in central brain by GAL4 driver
Text: Type of Model (with specific Drosophila model of neurodegeneration, with references). The targeted over/ectopic expression of APP in the brain using a UAS promoter driven APP transgene, induced by a specific GAL4 trans-driver in the brain of a Drosophila model system, was used for this Example. Below is a reference for such over-expression of APP in the Drosophila model system and the combination gives a fully penetrant AD with limited life-span.
β-Amyloid peptides and amyloid precursor protein (APP) play a deterministic role in Alzheimer's disease (AD). In Drosophila, the targeted expression of the key genes of AD, APP, causes generation of β-amyloid plaques and age-dependent neurodegeneration as well as progression to semi lethality, a shortened life span; genetic manipulations or pharmacological treatments with secretase inhibitors influenced the activity of the APP-processing proteases and modulated the severity of the phenotypes (Greeve I., et al., J. Neuroscience 24, 3899-3906 (2004)). The AD strain lives only for a few days after their eclosion (birth) as opposed to 65 days or more for wild type normal strains.
We determined the extension of life span in the mutant strain for each test compound. We used a specific GAL4 driver that induces the APP gene in the central brain area at high levels (see above) and results in a fully penetrant lethality within a 2-3 weeks period.

SMILES: C[N+](C)(C)[C@@H](Cc1c[nH]c(=S)[nH]1)C(=O)[O-] [ET, L-Ergothioneine]
- time to peak of ET in red blood cells (RBC) [1]: 2 h

SMILES: CC(=O)N[C@@H](CS)C(=O)O [NAC, N-Acetylcysteine]
- mean midbrain α-synuclein concentration (alpha-synuclein): 2.17 ± 0.31 µg/mL
- grip testing (in words) [2]: statistically significant improvement
- plasma glutathione concentration vs. untreated mice (glutathione (GSH)): higher concentrations of glutathione
- IL-6 more than the untreated group (IL-6): 8.7 pg/mL
- IL-6 more than the wild-type group (IL-6): 9.5 pg/mL

SMILES: C=C1CC[C@H](O)C/C1=C/C=C1\CCC[C@]2(C)[C@@H]([C@H](C)CCCC(C)C)CC[C@@H]12 [Vitamin D3, cholecalciferol]
- effect on Paraquat-induced oxidative stress (in words) (Drosophila melanogaster): no beneficial effect
- survival rate of AD flies versus control [3]: no such effect

SMILES: C=C1CC[C@H](O)C/C1=C/C=C1\CCC[C@]2(C)[C@@H]([C@H](C)/C=C/[C@H](C)C(C)C)CC[C@@H]12 [pure Vitamin D2, Ergocalciferol]
- survivability under Paraquat-induced oxidative stress (Drosophila melanogaster; 10 mM Paraquat, 1% (w/w) test material in yeast paste, 10 days, 25 degrees C): 13%+/−3%
- effect on Paraquat-induced oxidative stress (in words) (Drosophila melanogaster): no beneficial effect
- survival rate of AD flies versus control [3]: no such effect
